The target of assay [1] is Hepatocyte growth factor receptor (Homo sapiens, UniProt P08581). Put plainly: Inhibition of c-Met (unknown origin) by mobility shift assay.
For assay [2], the target named is Platelet-derived growth factor receptor beta (Homo sapiens, UniProt P09619). Nature of the assay: Inhibition of PDGFRbeta (unknown origin).
The next assay concerns SR. Nature of the assay: Cytotoxicity against human SR cells assessed as cell growth inhibition by measuring lethal concentration by SRB assay. Particulars: read-out: LC50 (the source's name). Type of assay: functional.
Assay [3] relates to MCF7. Nature of the assay: Cytotoxicity against human MCF7 cells assessed as cell growth inhibition by measuring lethal concentration by SRB assay. The assay is classed as functional. For orientation: The SRB assay estimates cell density from bound dye.
Assay [4] concerns A549. Put plainly: Cytotoxicity against human A549 cells assessed as cell growth inhibition by measuring lethal concentration by SRB assay. The assay is classed as functional. The note with it: read-out: LC50 (the source's name).
Another assay deals with PC-3. Nature of the assay: Cytotoxicity against human PC-3 cells assessed as cell growth inhibition by measuring lethal concentration by SRB assay. The assay is classed as functional. The note with it: read-out: LC50 (the source's name).
In the next assay the test system is M14. Put plainly: Cytotoxicity against human M14 cells assessed as cell growth inhibition by measuring lethal concentration by SRB assay. Type of assay: functional.
The next assay has as its system OVCAR-3. Put plainly: Cytotoxicity against human OVCAR-3 cells assessed as cell growth inhibition by measuring lethal concentration by SRB assay. The assay is classed as functional.
Another assay relates to A498. Nature of the assay: Cytotoxicity against human A498 cells assessed as cell growth inhibition by measuring lethal concentration by SRB assay. Type of assay: functional.
Assay [5] concerns MCF7. Nature of the assay: Cytotoxicity against human MCF7 cells assessed as reduction in cell growth incubated for 72 hrs by SRB assay. Particulars: MCF7, 72 h. Type of assay: functional, cell-based.
In assay [6] the test system is MCF7. Nature of the assay: Antiproliferative activity against human MCF7 cells assessed as reduction in cell growth incubated for 48 hrs by SRB assay. Type of assay: functional, cell-based. The note with it: MCF7, 48 h.
Assay [7] deals with MCF7. Nature of the assay: Cytotoxicity against human MCF7 cells assessed as reduction in cell growth measured for 48 hrs by SRB assay. Type of assay: functional, cell-based. Particulars: MCF7, 48 h.
Assay [8] has as its target Epidermal growth factor receptor (Homo sapiens, UniProt P00533). Put plainly: Inhibition of EGFR (unknown origin).
The subject of the next assay is HCT-116. Put plainly: Cytotoxicity against human HCT-116 cells assessed as cell growth inhibition by measuring lethal concentration by SRB assay. Type of assay: functional.
The test system of assay [9] is A549. Put plainly: Antiproliferative activity against human A549 cells assessed as reduction in cell growth incubated for 48 hrs by MTT assay. Type of assay: functional, cell-based. Particulars: A549, 48 h. A general note: Tetrazolium dyes change colour on reduction, which living cells bring about.

Sequence of Hepatocyte growth factor receptor (P08581 whole entry): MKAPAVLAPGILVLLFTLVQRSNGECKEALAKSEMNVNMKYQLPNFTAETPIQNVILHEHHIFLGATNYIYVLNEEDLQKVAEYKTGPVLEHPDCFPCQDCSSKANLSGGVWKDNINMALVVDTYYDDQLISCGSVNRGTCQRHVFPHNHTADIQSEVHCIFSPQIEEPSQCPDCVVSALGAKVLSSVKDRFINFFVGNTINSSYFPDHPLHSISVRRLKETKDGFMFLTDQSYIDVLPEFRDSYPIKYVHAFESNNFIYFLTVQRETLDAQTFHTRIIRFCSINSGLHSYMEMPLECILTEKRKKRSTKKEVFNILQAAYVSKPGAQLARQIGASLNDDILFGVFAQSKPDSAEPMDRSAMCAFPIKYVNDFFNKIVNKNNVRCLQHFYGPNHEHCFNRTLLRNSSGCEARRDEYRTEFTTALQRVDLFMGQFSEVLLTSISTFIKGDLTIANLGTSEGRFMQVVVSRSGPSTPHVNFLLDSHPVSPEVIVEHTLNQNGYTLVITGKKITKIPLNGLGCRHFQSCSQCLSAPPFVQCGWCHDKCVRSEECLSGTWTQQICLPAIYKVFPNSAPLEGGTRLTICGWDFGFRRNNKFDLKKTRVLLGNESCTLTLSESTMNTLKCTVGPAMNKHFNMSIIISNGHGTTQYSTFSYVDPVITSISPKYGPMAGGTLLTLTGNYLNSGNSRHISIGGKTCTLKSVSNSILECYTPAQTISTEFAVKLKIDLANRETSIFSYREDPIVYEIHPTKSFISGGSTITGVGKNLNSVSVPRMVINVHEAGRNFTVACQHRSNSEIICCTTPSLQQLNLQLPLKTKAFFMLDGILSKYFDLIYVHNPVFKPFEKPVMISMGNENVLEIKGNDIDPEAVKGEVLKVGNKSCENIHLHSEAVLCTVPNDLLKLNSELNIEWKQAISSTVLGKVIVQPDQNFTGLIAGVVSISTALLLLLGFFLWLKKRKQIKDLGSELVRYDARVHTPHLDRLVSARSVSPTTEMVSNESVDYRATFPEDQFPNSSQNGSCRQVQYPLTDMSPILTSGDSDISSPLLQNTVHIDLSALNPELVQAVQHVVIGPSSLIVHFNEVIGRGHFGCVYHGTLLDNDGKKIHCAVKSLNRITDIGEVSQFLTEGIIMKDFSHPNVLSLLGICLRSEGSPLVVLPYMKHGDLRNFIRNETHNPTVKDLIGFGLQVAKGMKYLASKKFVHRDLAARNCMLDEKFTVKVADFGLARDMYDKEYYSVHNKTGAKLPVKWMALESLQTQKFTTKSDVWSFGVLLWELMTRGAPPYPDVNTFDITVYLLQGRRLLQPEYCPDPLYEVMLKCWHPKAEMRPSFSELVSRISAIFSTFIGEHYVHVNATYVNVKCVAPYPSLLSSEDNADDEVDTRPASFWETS
Sequence of Epidermal growth factor receptor (P00533 whole entry): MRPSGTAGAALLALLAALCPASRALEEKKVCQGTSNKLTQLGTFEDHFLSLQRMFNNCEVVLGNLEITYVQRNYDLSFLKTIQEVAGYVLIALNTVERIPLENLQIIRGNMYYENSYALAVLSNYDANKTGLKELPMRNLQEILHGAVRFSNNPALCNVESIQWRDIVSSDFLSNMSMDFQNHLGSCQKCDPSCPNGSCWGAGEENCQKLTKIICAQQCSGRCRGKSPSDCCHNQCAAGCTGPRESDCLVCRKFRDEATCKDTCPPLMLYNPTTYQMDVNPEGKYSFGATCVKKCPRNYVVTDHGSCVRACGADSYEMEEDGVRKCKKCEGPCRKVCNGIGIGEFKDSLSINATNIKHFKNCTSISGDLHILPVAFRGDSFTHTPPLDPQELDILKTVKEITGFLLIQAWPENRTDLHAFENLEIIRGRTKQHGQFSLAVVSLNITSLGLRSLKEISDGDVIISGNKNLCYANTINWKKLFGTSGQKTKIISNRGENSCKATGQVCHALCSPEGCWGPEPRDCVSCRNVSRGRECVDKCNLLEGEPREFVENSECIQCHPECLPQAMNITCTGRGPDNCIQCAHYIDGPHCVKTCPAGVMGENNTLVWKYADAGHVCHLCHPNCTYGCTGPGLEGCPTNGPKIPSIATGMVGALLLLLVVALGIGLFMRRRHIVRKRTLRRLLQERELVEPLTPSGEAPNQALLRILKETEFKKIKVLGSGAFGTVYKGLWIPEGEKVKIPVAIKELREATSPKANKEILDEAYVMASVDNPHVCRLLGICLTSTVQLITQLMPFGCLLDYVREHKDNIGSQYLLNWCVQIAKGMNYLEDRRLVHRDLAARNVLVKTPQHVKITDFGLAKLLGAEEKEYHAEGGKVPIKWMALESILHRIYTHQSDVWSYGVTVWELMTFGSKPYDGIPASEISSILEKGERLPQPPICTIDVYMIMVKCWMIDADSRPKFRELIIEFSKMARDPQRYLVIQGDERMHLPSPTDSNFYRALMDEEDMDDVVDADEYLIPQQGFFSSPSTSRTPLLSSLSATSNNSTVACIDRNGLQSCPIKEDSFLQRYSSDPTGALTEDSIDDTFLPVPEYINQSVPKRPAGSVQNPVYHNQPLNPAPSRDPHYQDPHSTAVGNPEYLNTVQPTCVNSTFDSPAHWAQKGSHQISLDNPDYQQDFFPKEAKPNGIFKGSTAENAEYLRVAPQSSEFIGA
Sequence of Platelet-derived growth factor receptor beta (P09619 whole entry): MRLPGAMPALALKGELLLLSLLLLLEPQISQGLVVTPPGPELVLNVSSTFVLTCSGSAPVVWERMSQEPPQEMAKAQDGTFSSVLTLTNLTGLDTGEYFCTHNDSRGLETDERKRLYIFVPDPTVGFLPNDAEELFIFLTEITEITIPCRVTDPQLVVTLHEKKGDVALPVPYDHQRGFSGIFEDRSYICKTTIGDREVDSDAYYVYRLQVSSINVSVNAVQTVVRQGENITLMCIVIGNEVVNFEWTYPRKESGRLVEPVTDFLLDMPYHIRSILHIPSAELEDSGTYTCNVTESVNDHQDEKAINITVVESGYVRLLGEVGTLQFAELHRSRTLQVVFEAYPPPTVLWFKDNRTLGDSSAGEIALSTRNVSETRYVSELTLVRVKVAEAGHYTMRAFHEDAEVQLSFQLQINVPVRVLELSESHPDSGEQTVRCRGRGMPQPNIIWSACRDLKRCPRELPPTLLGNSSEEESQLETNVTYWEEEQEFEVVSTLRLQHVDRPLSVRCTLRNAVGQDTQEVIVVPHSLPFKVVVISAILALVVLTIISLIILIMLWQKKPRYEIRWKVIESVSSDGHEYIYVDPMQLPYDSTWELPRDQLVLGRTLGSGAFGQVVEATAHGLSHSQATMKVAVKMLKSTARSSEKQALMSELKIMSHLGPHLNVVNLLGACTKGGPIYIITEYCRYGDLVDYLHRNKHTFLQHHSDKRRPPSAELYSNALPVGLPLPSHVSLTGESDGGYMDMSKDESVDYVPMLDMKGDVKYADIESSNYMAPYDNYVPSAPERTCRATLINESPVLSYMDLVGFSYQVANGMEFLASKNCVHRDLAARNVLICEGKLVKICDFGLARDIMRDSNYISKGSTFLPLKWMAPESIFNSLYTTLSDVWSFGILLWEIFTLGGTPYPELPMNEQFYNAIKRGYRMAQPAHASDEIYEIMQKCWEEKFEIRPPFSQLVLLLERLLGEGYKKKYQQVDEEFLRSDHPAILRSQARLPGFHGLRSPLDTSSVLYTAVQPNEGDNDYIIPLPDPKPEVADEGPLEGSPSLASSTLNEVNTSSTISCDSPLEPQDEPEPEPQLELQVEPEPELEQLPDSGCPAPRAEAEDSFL

For `COc1ccc2c(Oc3ccc(CC(=O)Nc4cn(C)nc4C)c(OC)c3)ccnc2c1`, in assay [1], the IC50 – broadly, the concentration needed to halve the response being measured – came to 0.004 µM.
Consider `COc1ccc(-c2cc3cc(OC)ccc3nc2Nc2ccc(NC(=O)CN3CCN(C)CC3)cc2)cc1`, for which, in assay [2], the IC50 is 5 µM.
The same measure, in the same setting: next, `COc1ccc(-c2cc3ccc(OC)cc3nc2Nc2ccc(NC(=O)CN3CCN(C)CC3)cc2)cc1`: 5 µM.
For the compound `CCN(C(=O)c1cc(C(C)C)c(O)cc1O)c1cnc2ccccc2c1`, the IC50 in [1] was 0.17 µM.
Take `CCCCCCOc1ccc(/C=N/Nc2cc(C)nc3ccc(Cl)cc23)cc1`: the CC50 came to 8.11 µM in the assay with SR, 7.22 µM in the assay on A549 [4] and 5.83 µM with PC-3. For the same compound, the LC50 (as a rule, the concentration that kills 50% of the test population) with MCF7 [3] stood at 6.97 µM; with M14 it was 6.26 µM; with OVCAR-3, 6.83 µM; with A498, 6.55 µM.
Take `N#Cc1c(-c2ccc3ncc(C(N)=O)c(Nc4cccc(Br)c4)c3c2)csc1N`: the IC50 in the assay with MCF7 [5] was 50.6 µM.
As to `CCCOc1ccc(/C=N/Nc2ccnc3ccc(Br)cc23)cc1`, it took 1.83 µM to reach half-maximal inhibition in [2] (IC50).
`Cc1ccc(Nc2c(C(N)=O)cnc3ccc(C(=O)/C=C/c4ccc(-c5ccc(Cl)cc5)o4)cc23)cc1`: the IC50 in the assay with MCF7 [5] is 3.35 µM.
On to `COc1ccc2nc(Cl)cc(C3CC(c4ccc(C)cc4)=NN3c3nc(C)c(NNc4ccccc4)s3)c2c1` (stereo not drawn), for which, in the assay with MCF7 [6], the IC50 stood at 0.41 µM.
As to `COc1ccc2c(c1)CCc1c-2[nH]c(=O)c(C#N)c1-c1ccc(OC)c(OC)c1`, the IC50 in the assay on MCF7 [7] came out at 13.7 µM; in [8], 0.13 µM.
Consider `CCOC(=O)c1sc(N2N=C(c3ccc(C)cc3)CC2c2cc(Cl)nc3ccc(OC)cc23)nc1C` (stereo not drawn), for which, in the assay on MCF7 [6], the IC50 was determined as 0.32 µM.
`CC(=O)c1ccc2ncc(C(N)=O)c(Nc3ccc(OCc4ccccc4)cc3)c2c1`: the IC50 with MCF7 [5] was 10.8 µM.
For the compound `CCCCCOc1ccc(/C=N/Nc2cc(C)nc3ccc(Br)cc23)cc1`, the LC50 in the assay with HCT-116 worked out at 6.35 µM; in the assay with MCF7 [3], 7.93 µM; in the assay with M14 it was 6.64 µM; with OVCAR-3, 5.92 µM; with A498, 6.02 µM. Also, the CC50 in the assay with SR stood at 21.3 µM; in the assay on A549 [4], 7.15 µM; in the assay with PC-3, 5.88 µM.
For `COc1ccc2c(c1)CCc1c-2nc(N)c(C#N)c1-c1ccc(OC)c(OC)c1`, the IC50 stood at 14.5 µM with MCF7 [7] and 0.13 µM in assay [8].
With `CN1c2ccc(F)cc2SC1C(=O)Nc1cccc2c1N(Cc1ccc(OC3CCNCC3)cc1)CCC2` (stereo not drawn), in [2], the midpoint of inhibition, the IC50, lay at 1.13 µM.
`COc1ccc2nc(Cl)cc(C3CC(c4ccc(C)cc4)=NN3c3nc(-c4ccc(Cl)cc4)cs3)c2c1` (stereo not drawn): in the assay with MCF7 [6], the 50% inhibitory concentration (IC50) came out at 1.18 µM.
Same read-out and setting: with `COc1ccc2nc(Cl)cc(C3CC(c4ccc(C)cc4)=NN3c3nc(C)c(C(=O)Nc4ccccc4)s3)c2c1` (stereo not drawn) the figure was 0.36 µM.
For `O=C(Cc1ccc([N+](=O)[O-])cc1)Nc1ccc2c(c1)CCCN2C(=O)c1ccc(Cl)cc1`, in the assay with A549 [9], the IC50 was determined as 0.06 µM.
Same read-out and setting: next, `O=C(Cc1ccc(Br)cc1)Nc1ccc2c(c1)CCCN2C(=O)c1ccc(Cl)cc1`: 0.65 µM.
`CCOc1ccc(/C=N/Nc2ccnc3ccc(Br)cc23)cc1`: in assay [2], the IC50 amounted to 1.86 µM.
For `O=C(Cc1ccccc1)Nc1ccc2c(c1)CCCN2C(=O)c1ccc(Cl)cc1`, the IC50 in the assay with A549 [9] turned out to be 0.97 µM.
In the case of `CCCCOc1ccc(/C=N/Nc2ccnc3ccc(Br)cc23)cc1`, inhibition in assay [2] was half-maximal at 2.2 µM (IC50).
Consider `O=C(Nc1ccc2c(c1)CCCN2C(=O)c1ccc(Cl)cc1)c1cc(C(F)(F)F)cc(C(F)(F)F)c1`, for which, in the assay on A549 [9], the IC50 came to 3.2 µM.
For `COc1ccc2nc(O)c(C3CC(c4ccc(C)cc4)=NN3C(C)=O)cc2c1` (stereo not drawn), in the assay with MCF7 [6], the IC50 turned out to be 0.21 µM.
For `COc1ccc2c(c1)CCc1c-2[nH]c(=O)c(C#N)c1-c1ccc(OC)cc1OC`, the IC50 in the assay on MCF7 [7] was found to be 7.21 µM; in assay [8], 0.13 µM.
On the same counts, the results for `COc1ccc2c(c1)CCc1c-2nc(N)c(C#N)c1-c1ccc(OC)cc1OC` are 17.6 µM and 0.13 µM.
For `CCOC(=O)C(=O)Nc1ccc2c(c1)CCCN2C(=O)c1ccc(Cl)cc1`, the IC50 with A549 [9] is 0.15 µM.
In the case of `CCCCCCOc1ccc(/C=N/Nc2cc(C)nc3ccc(Br)cc23)cc1`, the LC50 in the assay on HCT-116 is 4.67 µM; in the assay with MCF7 [3] it was 6.84 µM; in the assay on M14 it was 6.67 µM; with OVCAR-3, 6.85 µM; with A498 it was 6.03 µM. For the same compound, the CC50 in the assay with SR was more than 100 µM; with A549 [4], 6.61 µM; with PC-3, 5.84 µM.
`CCCCCOc1ccc(/C=N/Nc2cc(C)nc3ccc(Cl)cc23)cc1`: the LC50 in the assay with HCT-116 was found to be 5.02 µM; with MCF7 [3], 7.04 µM; with M14, 5.91 µM; in the assay on OVCAR-3 it was 6.51 µM; with A498, 5.13 µM. For the same compound, the CC50 with SR amounted to 4.2 µM; in the assay on A549 [4] it was 6.52 µM; in the assay on PC-3, 5.98 µM.
With `CCCCOc1ccc(/C=N/Nc2cc(C)nc3ccc(Cl)cc23)cc1`, the LC50 in the assay with HCT-116 is more than 100 µM; in the assay with MCF7 [3], 6.87 µM; in the assay with M14 it was 8.07 µM; in the assay on OVCAR-3, 7.04 µM; with A498, 5.67 µM. Further, the figures for the CC50 in the assay on SR, with A549 [4] and with PC-3 were more than 100 µM, 6.35 µM and 6.55 µM, respectively.
Take `Nc1ccc(CC(=O)Nc2ccc3c(c2)CCCN3C(=O)c2ccc(Cl)cc2)cc1`: the IC50 in the assay with A549 [9] stood at 0.22 µM.
Turning to `COc1ccc2nc(Cl)cc(C3CC(c4ccc(C)cc4)=NN3c3nc(-c4ccccc4)cs3)c2c1` (stereo not drawn), the IC50 with MCF7 [6] was found to be 0.21 µM.
For the compound `CCCCOc1ccc(/C=N/Nc2cc(C)nc3ccc(Br)cc23)cc1`, the LC50 came to 6.17 µM in the assay with HCT-116; 7.37 µM in the assay with MCF7 [3]; 5.88 µM with M14; 7.18 µM in the assay with OVCAR-3; 5.47 µM with A498. Besides, the CC50 in the assay on SR was more than 100 µM; in the assay on A549 [4] it was 6.61 µM; in the assay on PC-3 it was 6.49 µM.
For `CCOc1ccc(/C=N/Nc2cc(C)nc3ccc(Cl)cc23)cc1`, the CC50 with SR is 15.5 µM; in the assay on A549 [4], 6.94 µM; in the assay with PC-3, 6.54 µM. For the same compound, the LC50 in the assay on MCF7 [3] amounted to 6.6 µM; with M14 it was 5.55 µM; with OVCAR-3, 6.36 µM; in the assay on A498, 7.01 µM.
With `CCCOc1ccc(/C=N/Nc2cc(C)nc3ccc(Cl)cc23)cc1`, the LC50 in the assay on HCT-116 amounted to 6.48 µM; in the assay with MCF7 [3], 6.9 µM; with M14 it was 6.17 µM; with OVCAR-3 it was 6.44 µM; in the assay on A498, 5.79 µM. For the same compound, the values for the CC50 in the assay on SR, in the assay with A549 [4] and with PC-3 were 38.6 µM, 6.49 µM and 6.39 µM, respectively.
`COc1ccc(-c2c(C#N)c(N)nc3c2CCc2cc(OC)ccc2-3)cc1`: in the assay on MCF7 [7], the IC50 came out at 12 µM.
For `CCCCOc1ccc(/C=N/Nc2ccnc3ccc(Cl)cc23)cc1`, in assay [2], inhibition was half-maximal at 1.76 µM (IC50).
Regarding `CCc1[nH]nc(NC(=O)Cc2ccc(Oc3ccnc4cc(OC)ccc34)cc2OC)c1C`, in assay [1], the IC50 worked out at 0.003 µM.
As for `COc1ccc(-c2c3c([nH]c(=O)c2C#N)-c2ccc(OC)cc2CC3)cc1`, the IC50 in the assay on MCF7 [7] amounted to 18.1 µM; in [8], 0.13 µM.
